Assay results as given in patent US8080417B2, “Methods of ex vivo hematopoietic stem cell expansion by co-culture with mesenchymal cells” (priority 2004, dated 2011).

Legend:
[1] = cited from earlier work
[2] = test system: hematopoietic stem cells (mononuclear cells co-cultured with mesenchymal cells); test: Mesenchymal-MNC co-culture at 21 days +/- Nicotinamide 5 mM: cell counts and surface markers; type: cell-based, human
Description: Isolation of mesenchymal cells: Mononuclear cells containing mesenchymal cells from bone marrow were obtained from a […] prepared by negative immuno-depletion of CD3, CD14, CD19, CD38, CD66b, and glycophorin-A positive cells using a commercially available kit (RosetteSep®, StemCell Technologies, Vancouver, BC, Canada), as per manufacturer's instructions. […] Blood 90 Suppl. 1 347b, 1997 (abst)]. The immuno-depleted cells were harvested, and then either further separated by layering on a Ficoll-Paque (Amersham-Pharmacia, Piscataway, N.J., USA) density gradient column (1.077 g/cm^3) and centrifuged at 400×g for 30 minutes, or cultured without further separation. The collected cells were plated in T75 non-coated tissue culture flasks (Nunc) at a concentration of 2×10^5 cells/ml, in expansion medium containing: low glucose DMEM and 20% Fetal Bovine Serum (FBS, Hyclone, Logan, Utah, USA) supplemented with or without 10 ng/ml bFGF (Pepro Tech Inc, Rocky Hill N.J.), 0.05 mg/ml gentamicin (Sigma Inc., St. Louis, Mo.) and 2 mM L-glutamine (Biological Industries, Israel). Selected cells were allowed to adhere for 3-4 days and non-adherent cells were washed out with medium changes. Some experiments were initiated as well with the entire MNC fraction.
Maintenance and expansion of mesenchymal cells: When adherent mesenchymal cells reached approximately 80-90% confluence, they were detached with 0.25% trypsin-EDTA (Sigma, Inc. St Louis, Mo.), washed twice in DMEM and 20% Fetal Bovine Serum, with centrifugation, 400 g, 5 min., and re-plated at a 1:2 to 1:1000 dilution under the same culture conditions.
(§1) Mesenchymal hematopoietic co-cultures: Mesenchymal cultures were established as described above. After reaching confluence, the mesenchymal medium was discarded and replaced with fresh, hematopoietic supportive medium containing early acting or early and late acting cytokines, and hematopoietic cells selected from; cord blood, bone marrow, placenta or peripheral blood mononuclear cells or purified progenitor cells (CD34+ or CD133+ cells), with or without a modulator of cell fate. Mononuclear or purified stem and/or progenitor cells were isolated and prepared for ex-vivo culture as previously described (see, above, or, for example, PCT IL05/000753). At different intervals the non-adherent cells were harvested, analyzed for hematopoietic potential by functional analysis (clonogenic assay, CFU, etc), and re-cultured in a stroma-free medium. The stromal layer was then re-supplemented with fresh hematopoietic supportive medium (medium including 10% FCS, SCF, TPO, FLT3, and IL6). This process was repeated several times during two to six weeks co-culture duration (as on day 10, day 14, etc).
Immunophenotyping: At different time points the cells were detached with 1 mM EDTA (15′, 37° C.). The detached cells were washed with a PBS solution containing 1% BSA, and stained (at 4° C. for 30 min) with either fluorescein isothiocyanate (FITC) or phycoerythrin (PE)-conjugated antibodies: mesenchymal markers 105 PE, 105 FITC (Serotec), 73 PE, and 49b PE, and other, non-mesenchymal markers such as 45 FITC, 14 FITC, HLA-DR FITC (BD Biosciences Pharmngen), 34 PE (Dako, Carpenteria, Calif., USA), HLA class1 PE, (BD Biosciences Pharmingen, San Diego Calif.). The cells were then washed in the above buffer and analyzed using a FACScalibur® flow cytometer (Becton Dickinson and Co, San Jose, Calif., USA). Cells were passed at a rate of about 1000 cells/second, using saline as the sheath fluid. A 488 nm argon laser beam served as the light source for excitation. Emission of ten thousand cells was measured using logarithmic amplification and calculated using the cellQuest software.

[3] = test system: hematopoietic stem cells (mononuclear cells co-cultured with mesenchymal cells); test: Assay for Colony Forming Units (CFU) on 21-day mesenchymal-MNC co-culture; type: cell-based, human; conditions: Table 3 experiment; 21 days; Nicotinamide 5 mM
Description: as §1
Assay for Colony Forming Units (CFU)—Cells were cloned in semi-solid, methylcellulose-containing medium supplemented with 2 IU/mL erythropoietin (Eprex, Cilag AG Int., Switzerland), stem cell factor and IL-3, both at 20 ng/mL, G-CSF and GM-CSF, both at 10 ng/mL (all from Pepro Tech, Rocky Hill, N.J.). […]

[4] = test system: CD34+/CXCR4+ cells in hematopoietic stem cells co-cultured with mesenchymal cells; test: CXCR4 in Mesenchymal-MNC co-culture at 21 days (CD34/CXCR4 double staining); type: cell-based, human; conditions: for Number of CD34+CXCR4+ cells: 21 days, co-culture + cytokines + Nicotinamide 5 mM; for % Increase of CD34+CXCR4+ cells: vs co-culture + cytokines without nicotinamide
Description: Induction of CXCR4 expression in hematopoietic stem cells results in increased sensitivity to lower levels of SDF-1, increased migration of the cells to SDF-1, improved proliferation and survival of the hematopoietic stem cells in-vitro and in-vivo, and improved engraftment potential of the induced cells. Similarly, it has been shown that blockage of CXCR4 with specific antibodies prevents engraftment of hematopoietic stem cells (Brenner, et al Stem Cells 2004; 22:1128-33; Kahn et al, Blood, 2004; 103:2942-49; Peled et al, Science 1999; 283:845-48). In order to investigate the effect of modulators of cell fate on CXCR4 expression in hematopoietic stem cells in co-culture with mesenchymal cells, the population of CD34+/CXCR4+ cell in co-cultured cells was detected and quantified by double staining with PE labeled CD34 and FITC labeled CXCR4. […] This enhanced CXCR4 expression contributes to the enhanced engraftment potential of the expanded, undifferentiated hematopoietic stem cells.

[5] = test system: hematopoietic stem cells (from bone marrow) co-cultured with mesenchymal cells; test: Long-term Mesenchymal-MNC co-culture (21 days +/- Nicotinamide, then 5 weeks cytokines only), assessed at 8 weeks; type: cell-based, human
Experimental: Assay for Colony Forming Units (CFU)—Cells were cloned in semi-solid, methylcellulose-containing medium supplemented with 2 IU/mL erythropoietin (Eprex, Cilag AG Int., Switzerland), stem cell factor and IL-3, both at 20 ng/mL, G-CSF and GM-CSF, both at 10 ng/mL (all from Pepro Tech, Rocky Hill, N.J.). Cultures were incubated for 14 days at 37° C. in humidified atmosphere of 5% CO2 in air.
In order to determine the long-term effects of modulators of cell fate on the long-term engraftment potential of hematopoietic stem cells, CFUc, CD34+ and CD34+/CD38− cells were assessed in co-cultured cells at 8 weeks (5 weeks after removal of nicotinamide from the medium).
The mononuclear cell fraction, prepared as described above, was expanded in co-culture with mesenchymal cells in medium supplemented with cytokines and 5 mM nicotinamide, as described hereinabove, for 21 days. After 21 days, the medium was replaced with medium supplemented with cytokines only, and expansion in co-cultures continued for another 5 weeks. At 8 weeks, the expanded cells were assessed for hematopoietic stem cell markers (CD34+ and CD34+/CD38−), and for engraftment potential (CFUc), as described hereinabove.

[6] = Table 1 experiment, 21 days, Nicotinamide 5 mM
[7] = Table 2 experiment, 21 days, Nicotinamide 5 mM
[8] = Table 3 experiment, 21 days, Nicotinamide 5 mM
[9] = Table 4 experiment, 21 days, Nicotinamide 5 mM
[10] = 21 days Nicotinamide 5 mM then 5 weeks cytokines only

## O=c1cc(N2CCOCC2)oc2c(-c3ccccc3)cccc12 [LY294002]
[1]
  stability in tissue culture medium: very stable

## NC(=O)c1cccnc1 [Nicotinamide, nicotinamide]
[2]; [6]
  CD34+CD38− (×10^4): 304 ×10^4
  CD34+Lin− (×10^4): 25 ×10^4
  TNC × 10^6: 309 × 10^6
[2]; [7]
  CD34+CD38− (×10^4): 1238 ×10^4
  CD34+Lin− (×10^4): 689 ×10^4
  TNC × 10^6: 309 × 10^6
[2]; [8]
  CD34+ (×10^4): 1553 ×10^4
  CD34+/TNC: 5.3%
  CD34+CD38− (×10^4): 82 ×10^4
  TNC × 10^6: 292 × 10^6
[2]; Table 3 experiment, 21 days, Nicotinamide 5 mM, listed as nicotinamide
  CD34+/TNC: 5.3%
[2]; [9]
  CD34+ (×10^4): 216 ×10^4
  CD34+/TNC: 1.5%
  CD34+CD38− (×10^4): 63 ×10^4
  CD34+Lin− (×10^4): 1.54 ×10^4
  TNC × 10^6: 144 × 10^6
[2]; Table 4 experiment, 21 days, Nicotinamide 5 mM, listed as nicotinamide
  CD34+/TNC: 1.5%
[2]; Tables 3 and 4, 21 days, Nicotinamide 5 mM
  greater expansion of stem cells (CD34+) relative to total nucleated cells, compared with cocultures without nicotinamide: ≤ 2.3 times
[2]; with nicotinamide, in some cases, Tables 1-5
  increase of the proportion of CD34+/38− cells and CD34+/Lin− cells in the cultures: > 10 fold
[3]
  CFU (×10^3): 4331 ×10^3
[4]; Exp 1
  Number of CD34+CXCR4+ cells: 65 × 10^4
  % Increase of CD34+CXCR4+ cells: 80%
[4]; Exp 2
  Number of CD34+CXCR4+ cells: 200 × 10^4
  % Increase of CD34+CXCR4+ cells: 33%
[5]; [10]
  CD34+ cells (cumulative): 264 × 10^6
  CD34+/CD38− (%): 6.3%
  CFUc (cumulative): 28 × 10^6
[5]; vs co-culture + cytokines
  Fold Increase (%) of CD34+ cells (cumulative): 235%
  Fold Increase (%) of CD34+/CD38− (%): 1050%
  Fold Increase (%) of CFUc (cumulative): 215%
